Among the test systems are T47D; RXF 393; OVCAR-5; OVCAR-3; RPMI-8226; EKVX; K562; A549; HOP-62; SK-OV-3; UACC-62; SW-620; IGROV-1; A498; SR; UO-31; SF-268; CAKI-1; MDA-MB-435.
What all share (test): inhibition of tumour cell growth, NCI panel, 48 h

Molecules are shown by their SMILES.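 Assay format: 96-well plates, 48-hour exposure. GI50 marks 50% less growth.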 Active and inactive are the calls of the source. Rule as the data show it: active = GI50 up to about 1.1 µM and inactive = higher.

These results are taken from ChEMBL document CHEMBL1201862, “PubChem BioAssay data set” (2004).

On to `Nc1cc(S(N)(=O)=O)ccc1SSc1ccc(S(N)(=O)=O)cc1N`, for which the GI50 in the assay with T47D, in the assay on RXF 393, in the assay on OVCAR-5, with OVCAR-3, in the assay on RPMI-8226 and in the assay on EKVX was > 100 µM (inactive) each time. Further, the GI50 in the assay with K562 was > 96.6 µM (inactive); with A549, > 100 µM (inactive); in the assay on HOP-62 it was > 100 µM (inactive); in the assay on SK-OV-3, > 100 µM (inactive); in the assay with UACC-62, > 100 µM (inactive); with SW-620, > 100 µM (inactive). Moreover, the GI50 in the assay on IGROV-1 is > 100 µM (inactive); with A498 it was > 100 µM (inactive); in the assay with SR it was 57 µM (inactive); with UO-31, > 100 µM (inactive); in the assay on SF-268, > 100 µM (inactive); in the assay on CAKI-1 it was > 100 µM (inactive). Also, the GI50 in the assay with MDA-MB-435 was > 100 µM (inactive).

On to `Nc1ccc(-c2nc3ccccc3s2)cc1Br`, for which the GI50 with T47D was 58.1 µM (inactive); in the assay on RXF 393, > 38.9 µM (inactive); in the assay with OVCAR-5, 0.134 µM (active); in the assay with OVCAR-3 it was < 0.01 µM (active); with RPMI-8226, 70.8 µM (inactive); in the assay with EKVX, 26.4 µM (inactive). Besides, the GI50 in the assay on K562 was 87.1 µM (inactive); with A549, > 100 µM (inactive); in the assay with HOP-62, 29.9 µM (inactive); in the assay with SK-OV-3, > 71.4 µM (inactive); with UACC-62 it was > 100 µM (inactive); in the assay with SW-620, > 100 µM (inactive). For the same molecule, the GI50 in the assay on IGROV-1 was < 0.01 µM (active); with A498, 2.44 µM (inactive); in the assay on SR, > 94.8 µM (inactive); in the assay with UO-31, 27.5 µM (inactive); with SF-268, 61 µM (inactive); with CAKI-1 it was > 100 µM (inactive). In addition, the GI50 with MDA-MB-435 was > 100 µM (inactive).

Regarding `COc1ccc2c(c1)c(=O)c1c(NCCCN(C)CCCNc3ccc4c(=O)n(CCN(C)C)c(=O)n5c6ccc(OC)cc6c(=O)c3c45)ccc3c(=O)n(CCN(C)C)c(=O)n2c31`, the GI50 with T47D is 0.619 µM (active); in the assay on RXF 393 it was < 0.0202 µM (active); in the assay with OVCAR-5 it was 0.29 µM (active); with OVCAR-3 it was 0.138 µM (active); in the assay with RPMI-8226 it was < 0.01 µM (active); with EKVX, 0.188 µM (active). Also, the GI50 with K562 is < 0.01 µM (active); with A549, < 0.01 µM (active); in the assay on HOP-62 it was < 0.036 µM (active); in the assay on SK-OV-3, 0.217 µM (active); in the assay with UACC-62, 0.305 µM (active); in the assay on SW-620, < 0.01 µM (active). Besides, the GI50 is < 0.01 µM (active) in the assay with IGROV-1; 0.305 µM (active) in the assay on A498; < 0.01 µM (active) in the assay on SR; < 0.0181 µM (active) in the assay with UO-31; 0.0998 µM (active) with SF-268; < 0.015 µM (active) in the assay with CAKI-1. The GI50 in the assay with MDA-MB-435 was < 0.0149 µM (active).

On to `COc1cccc(C2CC(C)(O)Oc3cc4c(cc32)OCO4)c1O` (stereo not given), for which the GI50 with T47D was 64.4 µM (inactive); in the assay with RXF 393 it was 26.3 µM (inactive); in the assay with OVCAR-5, 27 µM (inactive); in the assay with OVCAR-3 it was 15.6 µM (inactive); with RPMI-8226 it was 32.5 µM (inactive); with EKVX it was 34.6 µM (inactive). Also, the GI50 with K562 was 9.68 µM (inactive); with A549 it was 34.4 µM (inactive); with HOP-62, 27.4 µM (inactive); in the assay on SK-OV-3 it was 28.5 µM (inactive); in the assay with UACC-62 it was 15.7 µM (inactive); in the assay on SW-620, 22.8 µM (inactive). Besides, the GI50 in the assay on IGROV-1 is 27.9 µM (inactive); in the assay on A498 it was 41.7 µM (inactive); in the assay on SR, 4.63 µM (inactive); in the assay on UO-31, 35.6 µM (inactive); in the assay with SF-268, 31 µM (inactive); in the assay on CAKI-1, 39.4 µM (inactive). In the assay on MDA-MB-435, the GI50 was 2.78 µM (inactive).

Take `c1csc(-c2cscc2-c2cccs2)c1`: the GI50 in the assay with T47D is > 100 µM (inactive); in the assay with RXF 393, 27.6 µM (inactive); in the assay on OVCAR-5, 24.1 µM (inactive); in the assay with OVCAR-3, 17.4 µM (inactive); with RPMI-8226, 43.6 µM (inactive); in the assay with EKVX, 58.3 µM (inactive). In addition, the GI50 was 37.3 µM (inactive) in the assay on K562; 39.4 µM (inactive) in the assay on A549; 27.6 µM (inactive) in the assay with HOP-62; 32.9 µM (inactive) in the assay on SK-OV-3; 72.3 µM (inactive) in the assay on UACC-62; 48.3 µM (inactive) with SW-620. Besides, the GI50 was 67.8 µM (inactive) in the assay with IGROV-1; > 100 µM (inactive) in the assay on A498; 27.7 µM (inactive) with SR; 58.2 µM (inactive) with UO-31; > 100 µM (inactive) in the assay with SF-268; > 100 µM (inactive) in the assay on CAKI-1. Moreover, in the assay on MDA-MB-435, the GI50 is 33.4 µM (inactive).

Consider `NCCSS(=O)(=O)CCN`, for which the GI50 in the assay with T47D, with RXF 393, in the assay on OVCAR-5, in the assay with OVCAR-3, in the assay on RPMI-8226 and with EKVX was > 100 µM (inactive) in each case. The GI50 with K562, in the assay on A549, in the assay with HOP-62, with SK-OV-3, in the assay with UACC-62 and in the assay on SW-620 was > 100 µM (inactive) each time. Moreover, the GI50 with IGROV-1, with A498, in the assay with SR, in the assay with UO-31, in the assay with SF-268 and in the assay with CAKI-1 was > 100 µM (inactive) in each case. In addition, the GI50 with MDA-MB-435 was > 100 µM (inactive).

With `Oc1ccc(/C=C\c2nnc(/C=C\c3ccc(O)c(O)c3)s2)cc1O`, the GI50 was 2.35 µM (inactive) in the assay with T47D; 5.16 µM (inactive) with RXF 393; > 48.6 µM (inactive) in the assay with OVCAR-5; 3.69 µM (inactive) in the assay with OVCAR-3; 1.32 µM (inactive) in the assay on RPMI-8226; 16.6 µM (inactive) in the assay with EKVX. The GI50 in the assay with K562 is 1.21 µM (inactive); in the assay with A549, 6.31 µM (inactive); in the assay with HOP-62 it was 8.85 µM (inactive); in the assay with SK-OV-3, 13.6 µM (inactive); in the assay on UACC-62, 3.82 µM (inactive); with SW-620 it was 1.49 µM (inactive). The GI50 in the assay with IGROV-1 was 4.09 µM (inactive); with A498, 9.16 µM (inactive); in the assay on SR, 1.91 µM (inactive); in the assay with UO-31, 3.38 µM (inactive); in the assay with SF-268, 2.89 µM (inactive); in the assay with CAKI-1, 5.14 µM (inactive). In the assay on MDA-MB-435, the GI50 was 3.78 µM (inactive).

As to `C=C1C(C2(C)C(OC(C)=O)CC(=O)OC(C)(COC(C)=O)C2CC(=O)OC)C(OC=O)C(OC(=O)C(O)C(C)CC)C2(C)C(c3ccoc3)CC(=O)C12O` (stereo not given), the GI50 was > 57.7 µM (inactive) in the assay with T47D; 2.7 µM (inactive) in the assay with RXF 393; > 100 µM (inactive) in the assay with OVCAR-5; > 42.7 µM (inactive) in the assay on OVCAR-3; > 100 µM (inactive) in the assay on RPMI-8226; 6.32 µM (inactive) in the assay on EKVX. The GI50 in the assay on K562 was 4.49 µM (inactive); in the assay with A549, 3.56 µM (inactive); with HOP-62 it was 7.43 µM (inactive); in the assay on SK-OV-3 it was 0.78 µM (active); in the assay with UACC-62, > 30.7 µM (inactive); in the assay with SW-620, 2.08 µM (inactive). Also, the GI50 with IGROV-1 was 2.52 µM (inactive); in the assay with A498 it was 4.52 µM (inactive); with SR it was 5.36 µM (inactive); in the assay with UO-31, 3.77 µM (inactive); in the assay on SF-268, 3.72 µM (inactive); with CAKI-1 it was 3.27 µM (inactive). In addition, in the assay with MDA-MB-435, the GI50 was 6.61 µM (inactive).

For `CCc1c(Cl)nc(Cl)nc1Cl`, the GI50 in the assay on T47D was 0.339 µM (active); in the assay with RXF 393 it was 0.296 µM (active); in the assay with OVCAR-5, 0.324 µM (active); with OVCAR-3, 0.104 µM (active); with RPMI-8226, 0.049 µM (active); in the assay with EKVX, 0.519 µM (active). The GI50 in the assay on K562 was 0.0208 µM (active); in the assay on A549, 1.95 µM (inactive); in the assay on HOP-62, 2.09 µM (inactive); with SK-OV-3, 3.07 µM (inactive); with UACC-62 it was 0.528 µM (active); in the assay on SW-620 it was 0.0449 µM (active). For the same molecule, the GI50 with IGROV-1 was 0.542 µM (active); in the assay on A498, 5.79 µM (inactive); with SR it was 0.0188 µM (active); with UO-31, 1.38 µM (inactive); in the assay with SF-268, 0.217 µM (active); in the assay with CAKI-1, 0.0484 µM (active). Moreover, the GI50 in the assay on MDA-MB-435 was 0.0834 µM (active).

As to `N=C(N)Nc1nc2cc([N+](=O)[O-])ccc2[nH]1`, the GI50 was 69.2 µM (inactive) with T47D; 58.9 µM (inactive) in the assay on RXF 393; > 100 µM (inactive) with OVCAR-5; 99.3 µM (inactive) in the assay with OVCAR-3; > 100 µM (inactive) in the assay on RPMI-8226; 41.6 µM (inactive) in the assay with EKVX. The GI50 with K562 is 93.5 µM (inactive); in the assay with A549, > 100 µM (inactive); in the assay with HOP-62, > 100 µM (inactive); with SK-OV-3 it was > 100 µM (inactive); with UACC-62 it was 55.1 µM (inactive); with SW-620, > 100 µM (inactive). Further, the GI50 with IGROV-1 is > 100 µM (inactive); in the assay on A498, 27 µM (inactive); in the assay on SR it was > 100 µM (inactive); in the assay with UO-31, 93.8 µM (inactive); in the assay on SF-268, > 100 µM (inactive); with CAKI-1, > 100 µM (inactive). For the same molecule, the GI50 in the assay on MDA-MB-435 is > 100 µM (inactive).
